Results published in PubChem BioAssay AID330 (DTP/NCI, 2004).
Values joined by “and” are separate entries in the source; they are usually repeats but may differ in a detail not shown here. Identical values can stand only once. Inconclusive results and toxic doses are left out. Peptide text beside a SMILES is read from it.

Test system: P388 leukemia ip, CD2F1 mice, survival T/C
Assay: NCI In Vivo Anticancer Drug Screen. Data for tumor model P388 Leukemia (intraperitoneal) in CD2F1 (CDF1) mice
Settings: endpoint: median survival time, higher = longer survival
In short: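 Mice carrying the transplanted tumor received test compound or vehicle. Survival was recorded in each group, and the value is the treated-group measurement divided by that of the vehicle-treated control group.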

[1] = dose: 6.25 mg/kg/injection, schedule: Q01DX009 (ip), vehicle: saline with Tween-80
[2] = dose: 12.5 mg/kg/injection, schedule: Q01DX009 (ip), vehicle: saline with Tween-80
[3] = dose: 25.0 mg/kg/injection, schedule: Q01DX009 (ip), vehicle: saline with Tween-80
[4] = dose: 50.0 mg/kg/injection, schedule: Q01DX009 (ip), vehicle: saline with Tween-80
[5] = dose: 100.0 mg/kg/injection, schedule: Q01DX009 (ip), vehicle: saline with Tween-80
[6] = dose: 60.0 mg/kg/injection, schedule: Q01DX005 (ip), vehicle: saline with Tween-80
[7] = dose: 120.0 mg/kg/injection, schedule: Q01DX005 (ip), vehicle: saline with Tween-80
[8] = dose: 240.0 mg/kg/injection, schedule: Q01DX005 (ip), vehicle: saline with Tween-80
[9] = dose: 50.0 mg/kg/injection, schedule: Q01DX005 (ip), vehicle: Klucel (hydroxypropylcellulose) (HPC)
[10] = dose: 100.0 mg/kg/injection, schedule: Q01DX005 (ip), vehicle: Klucel (hydroxypropylcellulose) (HPC)
[11] = dose: 200.0 mg/kg/injection, schedule: Q01DX005 (ip), vehicle: Klucel (hydroxypropylcellulose) (HPC)
[12] = dose: 50.0 mg/kg/injection, schedule: Q01DX009 (ip), vehicle: saline
[13] = dose: 200.0 mg/kg/injection, schedule: Q01DX009 (ip), vehicle: saline
[14] = dose: 200.0 mg/kg/injection, schedule: Q01DX009 (ip), vehicle: saline with Tween-80

In the case of `OCC1OC(n2ncc3ccccc32)C(O)C1O` (stereo not given), the T/C [1] is reported as 97 % of control, the T/C [2] is reported as 92 % of control and the T/C [3] is reported as 106 % of control. The T/C (dose: 32.0 mg/kg/injection, schedule: Q01DX002 (ip), vehicle: saline with Tween-80) was 114 % of control and 90 % of control, the T/C [4] was 106 % of control and the T/C (dose: 64.0 mg/kg/injection, schedule: Q01DX002 (ip), vehicle: saline with Tween-80) was 106 % of control. For the same compound, the T/C [5] was 100 % of control and the T/C (dose: 128.0 mg/kg/injection, schedule: Q01DX002 (ip), vehicle: saline with Tween-80) was 112 % of control and 116 % of control.
With `CCC[CH2][Sn]1([CH2]CCC)[O]OC(c2ccccc2)[O]1` (stereo not given) the T/C (dose: 4.5 mg/kg/injection, schedule: Q01DX009 (ip), vehicle: other) was 150 % of control, the T/C (dose: 625.0 micrograms/kg/injection, schedule: Q04DX003 (ip), vehicle: saline with Tween-80) was 115 % of control and the T/C (dose: 1250.0 micrograms/kg/injection, schedule: Q04DX003 (ip), vehicle: saline with Tween-80) was 120 % of control. The T/C (dose: 5000.0 micrograms/kg/injection, schedule: Q04DX003 (ip), vehicle: saline with Tween-80) was 165 % of control.
`S=c1cc(-c2ccccc2)c(-c2ccccc2)c(-c2ccccc2)s1` was tested, and the T/C (dose: 100.0 mg/kg/injection, schedule: Q01DX001 (ip), vehicle: saline with Tween-80) was 91 % of control and the T/C (dose: 200.0 mg/kg/injection, schedule: Q01DX001 (ip), vehicle: saline with Tween-80) was 94 % of control.
For `Nc1ccc2nc3cc4c5ccccc5c(=O)c5cccc(c54)n3c(=O)c2c1`, the T/C (dose: 50.0 mg/kg/injection, schedule: Q01DX005 (ip), vehicle: Klucel + Tween-80) was 104 % of control.
In the case of `O=[N+]([O-])/C=C/c1ccc(Cl)cc1Cl`, the T/C (dose: 20.0 mg/kg/injection, schedule: Q04DX003 (ip), vehicle: saline with Tween-80) is reported as 118 % of control, the T/C (dose: 40.0 mg/kg/injection, schedule: Q04DX003 (ip), vehicle: saline with Tween-80) is reported as 118 % of control and the T/C (dose: 80.0 mg/kg/injection, schedule: Q04DX003 (ip), vehicle: saline with Tween-80) is reported as 118 % of control.
In the case of `COc1ccc(C(=O)c2ccc(OCCBr)cc2)c(O)c1`, the T/C (dose: 50.0 mg/kg/injection, schedule: Q01DX005 (ip), vehicle: saline with Tween-80) is reported as 92 % of control, the T/C (dose: 100.0 mg/kg/injection, schedule: Q01DX005 (ip), vehicle: saline with Tween-80) is reported as 88 % of control and the T/C (dose: 200.0 mg/kg/injection, schedule: Q01DX005 (ip), vehicle: saline with Tween-80) is reported as 88 % of control.
With `COc1ccc(C2=C(Cl)C(=O)N(c3ccccc3C)C(=O)C2(Cl)Cl)cc1` the T/C (dose: 100.0 mg/kg/injection, schedule: Q04DX002 (ip), vehicle: Klucel (hydroxypropylcellulose) (HPC)) was 101 % of control, the T/C (dose: 200.0 mg/kg/injection, schedule: Q04DX002 (ip), vehicle: Klucel (hydroxypropylcellulose) (HPC)) was 112 % of control and the T/C (dose: 400.0 mg/kg/injection, schedule: Q04DX002 (ip), vehicle: Klucel (hydroxypropylcellulose) (HPC)) was 117 % of control.
With `COc1ccccc1OCC(O)CNc1ccc(Cl)cc1C(=O)c1ccccc1` (stereo not given) the T/C [6] was 103 % of control, the T/C [7] was 105 % of control and the T/C [8] was 94 % of control.
`CC1(C)C=Cc2c(ccc3c(=O)c(-c4ccccc4)coc23)O1` was tested, and the T/C [6] was 94 % of control, the T/C [7] was 98 % of control and the T/C [8] was 93 % of control.
`C[S+](CCSc1ccccc1)CCSc1ccccc1` was tested, and the T/C (dose: 7.5 mg/kg/injection, schedule: Q01DX009 (ip), vehicle: saline with Tween-80) was 90 % of control, the T/C (dose: 15.0 mg/kg/injection, schedule: Q01DX009 (ip), vehicle: saline with Tween-80) was 101 % of control and the T/C (dose: 30.0 mg/kg/injection, schedule: Q01DX009 (ip), vehicle: saline with Tween-80) was 99 % of control.
With `C(=NCCC[Si]12OCCN(CCO1)CCO2)c1ccco1` the T/C [9] was 113 % of control, the T/C [10] was 105 % of control and the T/C [11] was 105 % of control.
`CCCCNCCC(=O)c1ccc(Cl)cc1` was tested, and the T/C [1] was 100 % of control, the T/C [2] was 100 % of control and the T/C [3] was 105 % of control.
In the case of `CC(C)(C)OC(=O)C1CCON1C1OC(C(O)CO)C2OC(C)(C)OC21` (stereo not given), the T/C [9] is reported as 100 % of control, the T/C [10] is reported as 100 % of control and 98 % of control and the T/C [11] is reported as 95 % of control and 104 % of control.
`O=C1CC(=O)N2C=CC=CC2=N1` was tested, and the T/C [12] was 101 % of control and the T/C [13] was 91 % of control.
`COc1cccc2c1C(=O)C=C(c1ccccc1)S2(=O)=O` was tested, and the T/C [9] was 111 % of control and the T/C [10] was 111 % of control.
For `N#CSCc1ccccc1Cl`, the T/C (dose: 2.5 mg/kg/injection, schedule: Q01DX009 (ip), vehicle: saline with Tween-80) was 104 % of control, the T/C (dose: 5.0 mg/kg/injection, schedule: Q01DX009 (ip), vehicle: saline with Tween-80) was 104 % of control and the T/C (dose: 10.0 mg/kg/injection, schedule: Q01DX009 (ip), vehicle: saline with Tween-80) was 90 % of control.
In the case of `CC(C)CCC(=O)OCCN1CCN(CCCN2c3ccccc3Sc3ccc(C(F)(F)F)cc32)CC1`, the T/C (dose: 12.5 mg/kg/injection, schedule: Q01DX009 (ip), vehicle: Klucel (hydroxypropylcellulose) (HPC)) is reported as 114 % of control and 117 % of control and the T/C (dose: 25.0 mg/kg/injection, schedule: Q01DX009 (ip), vehicle: Klucel (hydroxypropylcellulose) (HPC)) is reported as 116 % of control.
In the case of `COC(=O)CNC(=O)C(Cc1c[nH]c2ccccc12)NC(=O)OC(C)(C)C` (stereo not given), the T/C (dose: 12.5 mg/kg/injection, schedule: Q01DX009 (ip), vehicle: other) is reported as 96 % of control, the T/C (dose: 25.0 mg/kg/injection, schedule: Q01DX009 (ip), vehicle: other) is reported as 89 % of control and the T/C (dose: 50.0 mg/kg/injection, schedule: Q01DX009 (ip), vehicle: other) is reported as 89 % of control. For the same compound, the T/C (dose: 100.0 mg/kg/injection, schedule: Q01DX009 (ip), vehicle: other) was 90 % of control and the T/C (dose: 200.0 mg/kg/injection, schedule: Q01DX009 (ip), vehicle: other) was 97 % of control.
For `OC1CC2CC1CC2O` (stereo not given), the T/C [12] was 101 % of control, the T/C (dose: 100.0 mg/kg/injection, schedule: Q01DX009 (ip), vehicle: saline) was 98 % of control and the T/C [13] was 104 % of control.
`COc1cc(/C=C2/SC(=S)NC2=O)cc(OC)c1OC` was tested, and the T/C [3] was 100 % of control, the T/C [4] was 102 % of control and the T/C [5] was 96 % of control. The T/C [14] was 96 % of control.
With `CC1OC(C)(C2CC2)OC1C` (stereo not given) the T/C (dose: 100.0 mg/kg/injection, schedule: Q04DX003 (ip), vehicle: Klucel (hydroxypropylcellulose) (HPC)) was 95 % of control and the T/C (dose: 200.0 mg/kg/injection, schedule: Q04DX003 (ip), vehicle: Klucel (hydroxypropylcellulose) (HPC)) was 100 % of control.
`CC(C)C(NC(=O)C(CCCN=C(N)N)NC(=O)C(N)CCCCN)C(N)=O` (stereo not drawn) (H-Lys-Arg-Val-NH2; configuration not given here) was tested, and the T/C (dose: 12.5 mg/kg/injection, schedule: Q01DX009 (ip), vehicle: water) was 105 % of control, the T/C (dose: 25.0 mg/kg/injection, schedule: Q01DX009 (ip), vehicle: water) was 103 % of control and the T/C (dose: 50.0 mg/kg/injection, schedule: Q01DX009 (ip), vehicle: water) was 99 % of control. For the same compound, the T/C (dose: 100.0 mg/kg/injection, schedule: Q01DX009 (ip), vehicle: water) was 105 % of control and the T/C (dose: 200.0 mg/kg/injection, schedule: Q01DX009 (ip), vehicle: water) was 100 % of control.
For `O=C(CC1C2CC3CC(C2)CC1C3)C1C2CC3CC(C2)CC1C3` (stereo not given), the T/C [4] was 97 % of control, the T/C [5] was 97 % of control and the T/C [14] was 97 % of control.
`O=C(c1ccc([N+](=O)[O-])cc1)c1cc2ccccc2oc1=O` was tested, and the T/C [6] was 91 % of control, the T/C [7] was 94 % of control and the T/C [8] was 90 % of control.
`COc1ccc(N=Cc2c(O)ccc3c2oc2cc(Cl)c(O)c(Cl)c23)cc1` was tested, and the T/C (dose: 60.0 mg/kg/injection, schedule: Q01DX005 (ip), vehicle: Klucel (hydroxypropylcellulose) (HPC)) was 96 % of control, the T/C (dose: 120.0 mg/kg/injection, schedule: Q01DX005 (ip), vehicle: Klucel (hydroxypropylcellulose) (HPC)) was 93 % of control and the T/C (dose: 240.0 mg/kg/injection, schedule: Q01DX005 (ip), vehicle: Klucel (hydroxypropylcellulose) (HPC)) was 91 % of control.
For `Cc1ccc(N2C(=O)CCSC2=S)cc1Br`, the T/C (dose: 50.0 mg/kg/injection, schedule: Q01DX009 (ip), vehicle: suspension in saline) was 103 % of control, the T/C (dose: 100.0 mg/kg/injection, schedule: Q01DX009 (ip), vehicle: suspension in saline) was 107 % of control and the T/C (dose: 200.0 mg/kg/injection, schedule: Q01DX009 (ip), vehicle: suspension in saline) was 107 % of control.
In the case of `Cc1cccc(C)c1OCc1n[nH]c(=S)n1-c1ccccc1`, the T/C [9] is reported as 89 % of control, the T/C [10] is reported as 90 % of control and the T/C [11] is reported as 90 % of control.
